Measured values taken from US6451784B1 (priority 1996, dated 2002).
“Also recorded” adds a separate entry of the source. Like-named read-outs stand apart in the source and are kept apart here. Starred links: 1 amine or outer side, 2 acyl side, 3 side chain; linkers in the order of their positions; H or OH if unused. Positions of bridges follow the written chain, without caps; N, C: chain ends. Non-standard residues stand in square brackets, D forms with d. Residues, ends and D or L forms follow the SMILES beside them. Chains are numbered I, II in the order given. Actinocin(9to1) = Cc1c2oc3c(C)ccc(C(=O)[*:1])c3nc-2c(C(=O)[*:2])c(N)c1=O; NMeV = CN[C@H](C(=O)O)C(C)C; Sar = CNCC(=O)O

Legend:
neoplastic lung disease = system: neoplastic lung disease; parameters: species or system dogs; details: dog, in vivo
[1] = system: gross metastatic disease, micrometastatic hemangiosarcoma or micrometastatic primary lung cancer; parameters: species or system dogs; details: dog, in vivo
patients = details: cited from earlier work
mice = details: intraperitoneal pretreatment, bleomycin subcutaneous; cited from earlier work
healthy animals = details: in vivo; cited from earlier work
rats = details: rat, in vivo
[2] = system: 68-2 Adenocarcinoma Cells
[3] = share of drug bound in a protein-containing solution; cited from earlier work
[4] = dog, in vivo

O=P1(N(CCCl)CCCl)NCCCO1 (stereo not drawn) [CTX]
Results (neoplastic lung disease): SD lung

CC(=O)O[C@H]1C(=O)[C@@]2(C)[C@H]([C@H](OC(=O)c3ccccc3)[C@]3(O)C[C@H](OC(=O)[C@H](O)[C@@H](NC(=O)c4ccccc4)c4ccccc4)C(C)=C1C3(C)C)[C@]1(OC(C)=O)CO[C@@H]1C[C@@H]2O [Taxol, Paclitaxel]
Outcome after inhalation treatment [1]: no evidence of disease
Results [1]: SD (PR after; also recorded: PD (PR noted; also recorded: Alive and NED
Results (neoplastic lung disease): SD (4 weeks) lung; also recorded: PD lung, Rx discontinued
Pulmonary toxicity of the IV administered drug (patients): pulmonary toxicity is not listed

C[C@@H](CN1CC(=O)NC(=O)C1)N1CC(=O)NC(=O)C1 [dexrazoxane]
Protection against bleomycin-induced pulmonary damage (mice): reduced pulmonary alterations particularly fibrosis

CC[C@]1(O)C[C@H]2CN(CCc3c([nH]c4ccccc34)[C@@](C(=O)OC)(c3cc4c(cc3OC)N(C=O)[C@H]3[C@@](O)(C(=O)OC)[C@H](OC(C)=O)[C@]5(CC)C=CCN6CC[C@]43[C@@H]65)C2)C1 [Vincristine, vincristine]
Pulmonary toxicity of the IV administered drug (patients): no pulmonary toxicity noted

CO[C@@]12[C@H](COC(N)=O)C3=C(C(=O)C(C)=C(N)C3=O)N1C[C@@H]1N[C@@H]12 [Mutamycin, mitomycin]
Toxic effects to the respiratory tract (healthy animals): the most severe results

O=P1(N(CCCl)CCCl)NCCCO1 (stereo not drawn) [Cyclophosphamide, cyclophosphamide]
Toxic effects to the respiratory tract (healthy animals): only mild inflammation

Cc1c2oc3c(C)ccc(C(=O)N[C@@H]4C(=O)N[C@H](C(C)C)C(=O)N5CCC[C@H]5C(=O)N(C)CC(=O)N(C)[C@@H](C(C)C)C(=O)O[C@@H]4C)c3nc-2c(C(=O)N[C@@H]2C(=O)N[C@H](C(C)C)C(=O)N3CCC[C@H]3C(=O)N(C)CC(=O)N(C)[C@@H](C(C)C)C(=O)O[C@@H]2C)c(N)c1=O [Dactinomycin] (I: T[dV]P[Sar][NMeV] / II: T[dV]P[Sar][NMeV]; ester I:1-I:C, II:1-II:C; linker I:N-II:N via Actinocin(9to1))
Pulmonary toxicity of the IV administered drug (patients): no mention is made of pulmonary toxicity

carboplatin
Tolerated dose when given by inhalation (rats): up to 1.9 mg/m^2
Mean Lung Weight ([2]; Group 2, IV 180 mg/m^2, Day 61): 1.37 ± 0.16 g
Mean Percentage of Lung W/Tumors ([2]; Group 2, IV 180 mg/m^2, Day 61): 10 ± 0%
Mean Lung Weight ([2]; Group 3, IV 300 mg/m^2, Day 61): 1.37 ± 0.11 g
Mean Percentage of Lung W/Tumors ([2]; Group 3, IV 300 mg/m^2, Day 61): 10 ± 0%
Lung covered by tumor ([2]; rat, IV 180 or 300 mg/m^2, Day 61): 10%
Average lung and lung tumor weight ([2]; rat, both low (180 mg/m^2) and high (300 mg/m^2) dose, Day 61): 1.37 gram

CC(=O)[C@]1(O)Cc2c(O)c3c(c(O)c2[C@@H](O[C@H]2C[C@H](N)[C@H](O)[C@H](C)O2)C1)C(=O)c1ccccc1C3=O [Idarubicin]
Pulmonary toxicity of the IV administered drug (patients): no mention is made of pulmonary toxicity

Nc1ccn([C@@H]2O[C@H](CO)[C@@H](O)[C@@H]2O)c(=O)n1 [cytarabine]
Protein binding affinity [3]: 13%

COc1cc([C@@H]2c3cc4c(cc3[C@@H](O[C@@H]3O[C@@H]5CO[C@@H](C)O[C@H]5[C@H](O)[C@H]3O)[C@H]3COC(=O)[C@H]23)OCO4)cc(OC)c1O [Etoposide, etoposide]
Pulmonary toxicity of the IV administered drug (patients): no indication of pulmonary toxicity

CCc1c2c(nc3ccc(OC(=O)N4CCC(N5CCCCC5)CC4)cc13)-c1cc3c(c(=O)n1C2)COC(=O)[C@]3(O)CC [Irinotecan]
Pulmonary toxicity of the IV administered drug (patients): no mention is made of pulmonary toxicity

COc1cccc2c1C(=O)c1c(O)c3c(c(O)c1C2=O)C[C@@](O)(C(=O)CO)C[C@@H]3O[C@H]1C[C@H](N)[C@H](O)[C@H](C)O1 [Doxorubicin, doxorubicin]
Outcome after inhalation treatment [1]: alive with no evidence of disease 81 days later
Disease in the lung ([1]; iv): no evidence of disease in the lung
Clearance from the lung after pulmonary administration [4]: not rapidly cleared from the lung
Damage to the respiratory tract at necropsy [4]: no damage to the respiratory tract was observed
Peak blood levels following inhalation exposure compared with IV [4]: over an order of magnitude lower
Systemic doxorubicin level after about 4 hours, IV relative to pulmonary route [4]: about six times higher
Initial plasma concentration at 2 minutes, IV relative to pulmonary route ([4]; iv, 1 mg/kg): about 1.5 orders of magnitude
Development of lung metastases (neoplastic lung disease): no metastases developed in the lung for four months
Pulmonary toxicity of the IV administered drug (patients): no indication of pulmonary toxicity
